Laboratory results published in patent publication US6355799B1, “Substituted benzene compounds, process for their preparation, and herbicidal and defoliant compositions containing them” (ISK Americas Incorporated, priority 1997, dated 2002).

Legend:
Type in all cases: in vivo
[1] = system: barnyardgrass (Echinochloa crus-galli, ECHCG); experiment: Pre-emerge test, greenhouse herbicide activity screening; conditions: for phytotoxicity rating ECHCG: pre-emerge, 14 days after application, scale 0-100; for Pre-emerge Herbicidal Activity ECHCG: phytotoxicity rating 0-100, 14 days after application
Outline: (§1)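 Rating: 0–100 visual injury, 14 DAA. Application: acetone, 187 l/ha, 15–1000 g ai/ha, flat-fan track sprayer with nozzle 40–45 cm above soil or canopy. Post-emerge runs used 0.25% v/v surfactant on 2–3 leaf plants.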

[2] = system: velvetleaf (Abutilon theophrasti, ABUTH); experiment: as above; conditions: for phytotoxicity rating ABUTH: pre-emerge, 14 days after application, scale 0-100; for Pre-emerge Herbicidal Activity ABUTH: phytotoxicity rating 0-100, 14 days after application
Outline: as §1

[3] = system: johnsongrass (Sorghum halepense, SORHA); experiment: as above; conditions: for phytotoxicity rating SORHA: pre-emerge, 14 days after application, scale 0-100; for Pre-emerge Herbicidal Activity SORHA: phytotoxicity rating 0-100, 14 days after application
Outline: as §1

[4] = system: large crabgrass (Digitaria sanguinalis, DIGSA); experiment: as above; conditions: for phytotoxicity rating DIGSA: pre-emerge, 14 days after application, scale 0-100; for Pre-emerge Herbicidal Activity DIGSA: phytotoxicity rating 0-100, 14 days after application
Outline: as §1

[5] = system: lambsquarters (Chenopodium album, CHEAL); experiment: as above; conditions: for phytotoxicity rating CHEAL: pre-emerge, 14 days after application, scale 0-100; for Pre-emerge Herbicidal Activity CHEAL: phytotoxicity rating 0-100, 14 days after application
Outline: as §1

[6] = system: ivyleaf morningglory (Ipomoea hederacea, IPOHE); experiment: as above; conditions: for phytotoxicity rating IPOHE: pre-emerge, 14 days after application, scale 0-100; for Pre-emerge Herbicidal Activity IPOHE: phytotoxicity rating 0-100, 14 days after application
Outline: as §1

[7] = system: sicklepod (Cassia obtusifolia, CASOB); experiment: as above; conditions: for phytotoxicity rating CASOB: pre-emerge, 14 days after application, scale 0-100; for Pre-emerge Herbicidal Activity CASOB: phytotoxicity rating 0-100, 14 days after application
Outline: as §1

[8] = system: green foxtail (Setaria viridis, SETVI); experiment: as above; conditions: for phytotoxicity rating SETVI: pre-emerge, 14 days after application, scale 0-100; for Pre-emerge Herbicidal Activity SETVI: phytotoxicity rating 0-100, 14 days after application
Outline: as §1

[9] = system: redroot pigweed (Amaranthus retroflexus, AMARE); experiment: as above; conditions: for phytotoxicity rating AMARE: pre-emerge, 14 days after application, scale 0-100; for Pre-emerge Herbicidal Activity AMARE: phytotoxicity rating 0-100, 14 days after application
Outline: (§2)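 Plants grown in 10 cm pots of sandy loam mix received acetone-dissolved compounds through a moving flat-fan nozzle. Doses ranged from 15 to 1000 g ai/ha. Pre-emerge pots were seeded one day earlier, post-emerge pots 8–21 days earlier. Fourteen days on, each pot was graded 0–100 for damage.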

[10] = system: barnyardgrass (Echinochloa crus-galli, ECHCG); experiment: Post-emerge test, greenhouse herbicide activity screening; conditions: post-emerge, 14 days after application, rating scale 0-100
Outline: (§3)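 Compounds in acetone were track-sprayed at 15-1000 g ai/ha (187 l/ha) on sandy loam pots: pre-emerge one day after seeding, post-emerge at 2-3 leaf stage with 0.25% v/v non-ionic surfactant. Phytotoxicity was rated 14 days later on a 0 (no damage) to 100 (complete death) scale.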

[11] = system: velvetleaf (Abutilon theophrasti, ABUTH); experiment: as above; conditions: post-emerge, 14 days after application, rating scale 0-100
Outline: as §3

[12] = system: johnsongrass (Sorghum halepense, SORHA); experiment: as above; conditions: post-emerge, 14 days after application, rating scale 0-100
Outline: as §3

[13] = system: large crabgrass (Digitaria sanguinalis, DIGSA); experiment: as above; conditions: post-emerge, 14 days after application, rating scale 0-100
Outline: as §3

[14] = system: lambsquarters (Chenopodium album, CHEAL); experiment: as above; conditions: post-emerge, 14 days after application, rating scale 0-100
Outline: as §3

[15] = system: ivyleaf morningglory (Ipomoea hederacea, IPOHE); experiment: as above; conditions: post-emerge, 14 days after application, rating scale 0-100
Outline: as §3

[16] = system: sicklepod (Cassia obtusifolia, CASOB); experiment: as above; conditions: post-emerge, 14 days after application, rating scale 0-100
Outline: as §3

[17] = system: green foxtail (Setaria viridis, SETVI); experiment: as above; conditions: post-emerge, 14 days after application, rating scale 0-100
Outline: as §3

[18] = system: redroot pigweed (Amaranthus retroflexus, AMARE); experiment: as above; conditions: post-emerge, 14 days after application
Outline: as §3

[19] = system: field corn (Zea mays L., var. Dekalb 535, CORN); experiment: Post-emerge test, crop safety; conditions: post-emerge, 14 days after application, rating scale 0-100
Outline: as §2

[20] = system: upland rice (Oryza sp., var. Tebonnet, RICE); experiment: Post-emerge test, crop safety; conditions: post-emerge, 14 days after application, rating scale 0-100
Outline: as §2

[21] = system: field corn (Zea mays L., var. Dekalb 535, CORN); experiment: Pre-emerge test, crop safety; conditions: for phytotoxicity rating CORN (crop damage): pre-emerge, 14 days after application, scale 0-100; for Pre-emerge Herbicidal Activity CORN: crop damage rating 0-100, 14 days after application
Outline: (§4)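 Sandy loam pots; pre-emerge: sown 1 d pre-spray, surface-watered after, then bottom-watered. Post-emerge: sown 8–21 d before, 2–3 leaf stage, + 0.25% v/v NIS, bottom-watered. Acetone, 187 l/ha track spray, 15–1000 g ai/ha. 0–100 injury score, day 14.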

[22] = system: upland rice (Oryza sp., var. Tebonnet, RICE); experiment: Pre-emerge test, crop safety; conditions: for phytotoxicity rating RICE (crop damage): pre-emerge, 14 days after application, scale 0-100; for Pre-emerge Herbicidal Activity RICE: crop damage rating 0-100, 14 days after application
Outline: as §4

[23] = 250 g ai/ha, rating scale 0-100

COc1c(Cl)cc(F)c(-n2c(=O)cc(C(F)(F)F)n(C)c2=O)c1NC(=O)CSc1ccc2ccccc2c1 [2-169]
phytotoxicity rating ECHCG ([1]; 63 g ai/ha): 0 | phytotoxicity rating ECHCG ([1]; 250 g ai/ha): 0 | phytotoxicity rating ABUTH ([2]; 63 g ai/ha): 0 | phytotoxicity rating ABUTH ([2]; 250 g ai/ha): 90 | phytotoxicity rating SORHA ([3]; 63 g ai/ha): 0 | phytotoxicity rating SORHA ([3]; 250 g ai/ha): 20 | phytotoxicity rating DIGSA ([4]; 63 g ai/ha): 0 | phytotoxicity rating DIGSA ([4]; 250 g ai/ha): 80 | phytotoxicity rating CHEAL ([5]; 63 g ai/ha): 65 | phytotoxicity rating CHEAL ([5]; 250 g ai/ha): 100 | phytotoxicity rating IPOHE ([6]; 63 g ai/ha): 10 | phytotoxicity rating IPOHE ([6]; 250 g ai/ha): 20 | phytotoxicity rating CASOB ([7]; 63 g ai/ha): 20 | phytotoxicity rating CASOB ([7]; 250 g ai/ha): 30 | phytotoxicity rating SETVI ([8]; 63 g ai/ha): 0 | phytotoxicity rating SETVI ([8]; 250 g ai/ha): 30 | phytotoxicity rating AMARE ([9]; 63 g ai/ha): 70 | phytotoxicity rating AMARE ([9]; 250 g ai/ha): 80 | ECHCG phytotoxicity rating ([10]; 63 g ai/ha): 0 | ECHCG phytotoxicity rating ([10]; 250 g ai/ha): 0 | ABUTH phytotoxicity rating ([11]; 63 g ai/ha): 70 | ABUTH phytotoxicity rating ([11]; 250 g ai/ha): 80 | SORHA phytotoxicity rating ([12]; 63 g ai/ha): 0 | SORHA phytotoxicity rating ([12]; 250 g ai/ha): 0 | DIGSA phytotoxicity rating ([13]; 63 g ai/ha): 0 | DIGSA phytotoxicity rating ([13]; 250 g ai/ha): 0 | CHEAL phytotoxicity rating ([14]; 63 g ai/ha): 30 | CHEAL phytotoxicity rating ([14]; 250 g ai/ha): 40 | IPOHE phytotoxicity rating ([15]; 63 g ai/ha): 50 | IPOHE phytotoxicity rating ([15]; 250 g ai/ha): 40 | CASOB phytotoxicity rating ([16]; 63 g ai/ha): 10 | CASOB phytotoxicity rating ([16]; 250 g ai/ha): 10 | SETVI phytotoxicity rating ([17]; 63 g ai/ha): 0 | SETVI phytotoxicity rating ([17]; 250 g ai/ha): 0 | AMARE phytotoxicity rating ([18]; 63 g ai/ha, rating scale 0-100): 10 | AMARE phytotoxicity rating [18, 23]: 0 | CORN phytotoxicity rating (crop damage) ([19]; 63 g ai/ha): 10 | CORN phytotoxicity rating (crop damage) ([19]; 250 g ai/ha): 10 | RICE phytotoxicity rating (crop damage) ([20]; 63 g ai/ha): 10 | RICE phytotoxicity rating (crop damage) ([20]; 250 g ai/ha): 10 | phytotoxicity rating CORN (crop damage) ([21]; 63 g ai/ha): 0 | phytotoxicity rating CORN (crop damage) ([21]; 250 g ai/ha): 0 | phytotoxicity rating RICE (crop damage) ([22]; 63 g ai/ha): 10 | phytotoxicity rating RICE (crop damage) ([22]; 250 g ai/ha): 40

COc1c(Cl)cc(F)c(-n2c(=O)cc(C(F)(F)F)n(C)c2=O)c1NC(=O)C1CC1 [2-206]
Pre-emerge Herbicidal Activity ECHCG ([1]; 63 g ai/ha): 0 | Pre-emerge Herbicidal Activity ECHCG ([1]; 250 g ai/ha): 90 | Pre-emerge Herbicidal Activity ABUTH ([2]; 63 g ai/ha): 70 | Pre-emerge Herbicidal Activity ABUTH ([2]; 250 g ai/ha): 100 | Pre-emerge Herbicidal Activity SORHA ([3]; 63 g ai/ha): 0 | Pre-emerge Herbicidal Activity SORHA ([3]; 250 g ai/ha): 40 | Pre-emerge Herbicidal Activity DIGSA ([4]; 63 g ai/ha): 0 | Pre-emerge Herbicidal Activity DIGSA ([4]; 250 g ai/ha): 80 | Pre-emerge Herbicidal Activity CHEAL ([5]; 63 g ai/ha): 50 | Pre-emerge Herbicidal Activity CHEAL ([5]; 250 g ai/ha): 100 | Pre-emerge Herbicidal Activity IPOHE ([6]; 63 g ai/ha): 50 | Pre-emerge Herbicidal Activity IPOHE ([6]; 250 g ai/ha): 90 | Pre-emerge Herbicidal Activity CASOB ([7]; 63 g ai/ha): 20 | Pre-emerge Herbicidal Activity CASOB ([7]; 250 g ai/ha): 60 | Pre-emerge Herbicidal Activity SETVI ([8]; 63 g ai/ha): 0 | Pre-emerge Herbicidal Activity SETVI ([8]; 250 g ai/ha): 70 | Pre-emerge Herbicidal Activity AMARE ([9]; 63 g ai/ha): 0 | Pre-emerge Herbicidal Activity AMARE ([9]; 250 g ai/ha): 80 | phytotoxicity rating ECHCG ([10]; 63 g ai/ha): 0 | phytotoxicity rating ECHCG ([10]; 250 g ai/ha): 30 | phytotoxicity rating ABUTH ([11]; 63 g ai/ha): 50 | phytotoxicity rating ABUTH ([11]; 250 g ai/ha): 90 | phytotoxicity rating SORHA ([12]; 63 g ai/ha): 0 | phytotoxicity rating SORHA ([12]; 250 g ai/ha): 0 | phytotoxicity rating DIGSA ([13]; 63 g ai/ha): 30 | phytotoxicity rating DIGSA ([13]; 250 g ai/ha): 20 | phytotoxicity rating CHEAL ([14]; 63 g ai/ha): 50 | phytotoxicity rating CHEAL ([14]; 250 g ai/ha): 70 | phytotoxicity rating IPOHE ([15]; 63 g ai/ha): 70 | phytotoxicity rating IPOHE ([15]; 250 g ai/ha): 90 | phytotoxicity rating CASOB ([16]; 63 g ai/ha): 50 | phytotoxicity rating CASOB ([16]; 250 g ai/ha): 80 | phytotoxicity rating SETVI ([17]; 63 g ai/ha): 0 | phytotoxicity rating SETVI ([17]; 250 g ai/ha): 0 | phytotoxicity rating AMARE ([18]; 63 g ai/ha, rating scale 0-100 (0 no damage, 100 complete death)): 20 | phytotoxicity rating AMARE [18, 23]: 50 | phytotoxicity rating CORN (crop damage) ([19]; 63 g ai/ha): 0 | phytotoxicity rating CORN (crop damage) ([19]; 250 g ai/ha): 0 | phytotoxicity rating RICE (crop damage) ([20]; 63 g ai/ha): 0 | phytotoxicity rating RICE (crop damage) ([20]; 250 g ai/ha): 70 | Pre-emerge Herbicidal Activity CORN ([21]; 63 g ai/ha): 50 | Pre-emerge Herbicidal Activity CORN ([21]; 250 g ai/ha): 100 | Pre-emerge Herbicidal Activity RICE ([22]; 63 g ai/ha): 60 | Pre-emerge Herbicidal Activity RICE ([22]; 250 g ai/ha): 80
